Where two headings read alike, the source gives them in different places.
Target: T1, Recombinant human cathepsin S (CatS) (Homo sapiens, UniProt P25774)
T1 construct: made in house
Assay: Recombinant human cathepsin S (CatS) fluorogenic substrate inhibition assay
Format: biochemical
Description: Recombinant human cathepsin S (CatS) was expressed in the baculovirus system and purified in one step with a thiopropyl-sepharose column. […] The assay is run in 150 mM sodium acetate pH 5.0 containing 1.5 mM DTT and 150 mM NaCl. […] Measurements are taken every min for 20 min. The rate is calculated from the slope of the increase in fluorescence and the percent inhibition is calculated from this.

[1] = average of results obtained, substrate Z-Valine-Valine-Arginine-AMC 10 μM, pH 5.0, read-out: CatS IC50

T1 sequence (P25774 115-331): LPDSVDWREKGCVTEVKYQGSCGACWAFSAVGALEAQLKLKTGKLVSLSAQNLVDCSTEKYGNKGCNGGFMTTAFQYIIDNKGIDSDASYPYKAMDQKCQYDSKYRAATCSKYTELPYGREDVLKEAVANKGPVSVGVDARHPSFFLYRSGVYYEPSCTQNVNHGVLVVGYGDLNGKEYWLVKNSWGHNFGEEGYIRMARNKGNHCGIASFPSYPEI

In the case of `CS(=O)(=O)N1CCc2c(c(-c3ccc(C(F)(F)F)c(CNC(=O)c4ccc(N)cc4)c3)nn2CC(O)CN2CCCC2)C1` (stereo not drawn) [Example 165, 4-Amino-N-{5-[1-(2-hydroxy-3-pyrrolidin-1-yl-propyl)-5-methanesulfonyl-4,5,6,7-tetrahydro-1H-pyrazolo[4,3-c]pyridin-3-yl]-2-trifluoromethyl-benzyl}-benzamide], the IC50 [1] is reported as 440 nM.
`CS(=O)(=O)N1CCc2c(c(-c3ccc(C(F)(F)F)c(CNC(=O)c4ccc(F)cc4)c3)nn2CC(O)CN2CCC(CCO)CC2)C1` (stereo not drawn) [Example 91, 4-Fluoro-N-[5-(1-{2-hydroxy-3-[4-(2-hydroxy-ethyl)-piperidin-1-yl]-propyl}-5-methanesulfonyl-4,5,6,7-tetrahydro-1H-pyrazolo[4,3-c]pyridin-3-yl)-2-trifluoromethyl-benzyl]-benzamide] was tested, and the IC50 [1] was 160 nM.
`CS(=O)(=O)N1CCc2c(c(-c3ccc(Cl)c(CNC(=O)c4ccc(Cl)c(Cl)c4)c3)nn2CCCN2CCCC2)C1` [Example 87, 3,4-Dichloro-N-{2-chloro-5-[5-methanesulfonyl-1-(3-pyrrolidin-1-yl-propyl)-4,5,6,7-tetrahydro-1H-pyrazolo[4,3-c]pyridin-3-yl]-benzyl}-benzamide] was tested, and the IC50 [1] was 1020 nM.
`CS(=O)(=O)N1CCc2c(c(-c3ccc(Cl)c(CNS(=O)(=O)c4ccc(Cl)c(Cl)c4)c3)nn2CCCN2CCCC2)C1` [Example 197, 3,4-Dichloro-N-{2-chloro-5-[5-methanesulfonyl-1-(3-pyrrolidin-1-yl-propyl)-4,5,6,7-tetrahydro-1H-pyrazolo[4,3-c]pyridin-3-yl]-benzyl}-benzenesulfonamide] gave an IC50 [1] of 5400 nM.
`CN1CCN(CC(O)Cn2nc(-c3ccc(C(F)(F)F)c(CNC(=O)c4ccc(F)cc4)c3)c3c2CCN(S(C)(=O)=O)C3)CC1` (stereo not drawn) [Example 227, 4-Fluoro-N-(5-{1-[2-hydroxy-3-(4-methyl-piperazin-1-yl)-propyl]-5-methanesulfonyl-4,5,6,7-tetrahydro-1H-pyrazolo[4,3-c]pyridin-3-yl}-2-trifluoromethyl-benzyl)-benzamide] was tested, and the IC50 was 760 nM.
`CS(=O)(=O)N1CCc2c(c(-c3ccc(C(F)(F)F)c(CNC(=O)Oc4ccccc4)c3)nn2CC(O)CN2CCCC2)C1` (stereo not drawn) [Example 116, {5-[1-(2-Hydroxy-3-pyrrolidin-1-yl-propyl)-5-methanesulfonyl-4,5,6,7-tetrahydro-1H-pyrazolo[4,3-c]pyridin-3-yl]-2-trifluoromethyl-benzyl}-carbamic acid phenyl ester] showed an IC50 of 520 nM.
`CC(C)CC(=O)NCc1cc(-c2nn(CC(O)CN3CCC(NC(=O)C(F)(F)F)C3)c3c2CN(S(C)(=O)=O)CC3)ccc1C(F)(F)F` (stereo not drawn) [Example 280, N-[5-(1-{2-Hydroxy-3-[3-(2,2,2-trifluoro-acetylamino)-pyrrolidin-1-yl]-propyl}-5-methanesulfonyl-4,5,6,7-tetrahydro-1H-pyrazolo[4,3-c]pyridin-3-yl)-2-trifluoromethyl-benzyl]-3-methyl-butyramide] gave an IC50 [1] of 360 nM.
`CC(C)CCNCc1cc(-c2nn(CC(O)CN3CCC(NS(C)(=O)=O)CC3)c3c2CN(S(C)(=O)=O)CC3)ccc1C(F)(F)F` (stereo not drawn) [Example 283, N-{1-[2-Hydroxy-3-(5-methanesulfonyl-3-3-[(3-methyl-butylamino)-methyl]-4-trifluoromethyl-phenyl-4,5,6,7-tetrahydro-pyrazolo[4,3-c]pyridin-1-yl)-propyl]-piperidin-4-yl}-methanesulfonamide] was tested, and the IC50 was 800 nM.
In the case of `CC(C)=CC(=O)NCc1cc(-c2nn(CC(O)CN3CCC(NS(C)(=O)=O)CC3)c3c2CN(S(C)(=O)=O)CC3)ccc1C(F)(F)F` (stereo not drawn) [Example 269, 3-Methyl-but-2-enoic acid 5-{1-[2-hydroxy-3-(4-methanesulfonylamino-piperidin-1-yl)-propyl]-5-methanesulfonyl-4,5,6,7-tetrahydro-1H-pyrazolo[4,3-c]pyridin-3-yl}-2-trifluoromethyl-benzylamide], the IC50 [1] is reported as 30 nM.
For `CS(=O)(=O)N1CCc2c(c(-c3ccc(C(F)(F)F)c(CNC(=O)c4ccc(F)c(F)c4)c3)nn2CC(O)CN2CCCC2)C1` (stereo not drawn) [Example 60, 3,4-Difluoro-N-{5-[1-(2-hydroxy-3-pyrrolidin-1-yl-propyl)-5-methanesulfonyl-4,5,6,7-tetrahydro-1H-pyrazolo[4,3-c]pyridin-3-yl]-2-trifluoromethyl-benzyl}-benzamide], the IC50 [1] was 210 nM.
For `CS(=O)(=O)N1CCc2c(c(-c3ccc(C(F)(F)F)c(CNC(=O)c4ccc(O)cc4)c3)nn2CC(O)CN2CCC3(CCNC3=O)CC2)C1` (stereo not drawn) [Example 141, 4-Hydroxy-N-(5-{1-[2-hydroxy-3-(1-oxo-2,8-diaza-spiro[4.5]dec-8-yl)-propyl]-5-methanesulfonyl-4,5,6,7-tetrahydro-1H-pyrazolo[4,3-c]pyridin-3-yl}-2-trifluoromethyl-benzyl)-benzamide], the IC50 [1] was 50 nM.
In the case of `CS(=O)(=O)N1CCc2c(c(-c3ccc(C(F)(F)F)c(CNC(=O)CN4CCOCC4)c3)nn2CCCN2CCC(N3CCCC3=O)CC2)C1` [Example 39, N-[5-(5-Methanesulfonyl-1-{3-[4-(2-oxo-pyrrolidin-1-yl)-piperidin-1-yl]-propyl}-4,5,6,7-tetrahydro-1H-pyrazolo[4,3-c]pyridin-3-yl)-2-trifluoromethyl-benzyl]-2-morpholin-4-yl-acetamide], the IC50 [1] is reported as 440 nM.
In the case of `CC(C)=CC(=O)NCc1cc(-c2nn(CC(O)CN3CCC(C(C)(C)C)CC3)c3c2CN(S(C)(=O)=O)CC3)ccc1C(F)(F)F` (stereo not drawn) [Example 273, 3-Methyl-but-2-enoic acid 5-{1-[3-(4-tert-butyl-piperidin-1-yl)-2-hydroxy-propyl]-5-methanesulfonyl-4,5,6,7-tetrahydro-1H-pyrazolo[4,3-c]pyridin-3-yl}-2-trifluoromethyl-benzylamide], the IC50 [1] is reported as 30 nM.
With `COC1CCN(CC(O)Cn2nc(-c3ccc(Cl)c(CNC(=O)c4ccc(F)cc4)c3)c3c2CCN(S(C)(=O)=O)C3)CC1` (stereo not drawn) [Example 75, N-(2-Chloro-5-{1-[2-hydroxy-3-(4-methoxy-piperidin-1-yl)-propyl]-5-methanesulfonyl-4,5,6,7-tetrahydro-1H-pyrazolo[4,3-c]pyridin-3-yl}-benzyl)-4-fluoro-benzamide] the IC50 [1] was 140 nM.
`CC1(C)CCN(CCCn2nc(-c3ccc(C(F)(F)F)c(CNCc4ccc(F)cc4)c3)c3c2CCN(C(=O)CO)C3)CC1` [Example 297, 1-(1-[3-(4,4-Dimethyl-piperidin-1-yl)-propyl]-3-{3-[(4-fluoro-benzylamino)-methyl]-4-trifluoromethyl-phenyl}-1,4,6,7-tetrahydro-pyrazolo[4,3-c]pyridin-5-yl)-2-hydroxy-ethanone] showed an IC50 [1] of 180 nM.
With `Cc1ccc(C(=O)NCc2cc(-c3nn(CC(O)CN4CCCC4)c4c3CN(S(C)(=O)=O)CC4)ccc2C(F)(F)F)cc1` (stereo not drawn) [Example 214] the IC50 [1] was 580 nM.
`CS(=O)(=O)N1CCc2c(c(-c3ccc(Cl)c(CCC(=O)Nc4ccccc4)c3)nn2CCCN2CCOCC2)C1` [Example 292, 3-{2-Chloro-5-[5-methanesulfonyl-1-(3-morpholin-4-yl-propyl)-4,5,6,7-tetrahydro-1H-pyrazolo[4,3-c]pyridin-3-yl]-phenyl}-N-phenyl-propionamide] gave an IC50 [1] of 2550 nM.
Work on `CS(=O)(=O)N1CCc2c(c(-c3ccc(Cl)c(CNC(=O)c4ccc(F)cc4)c3)nn2CC(O)CN2CCC(F)CC2)C1` (stereo not drawn) [Example 82, N-(2-Chloro-5-{1-[3-(4-fluoro-piperidin-1-yl)-2-hydroxy-propyl]-5-methanesulfonyl-4,5,6,7-tetrahydro-1H-pyrazolo[4,3-c]pyridin-3-yl}-benzyl)-4-fluoro-benzamide] yielded an IC50 [1] of 190 nM.
`CS(=O)(=O)N1CCc2c(c(-c3ccc(C(F)(F)F)c(CNC(=O)c4ccc(F)cc4)c3)nn2CC(O)CN2CCNC(=O)C2)C1` (stereo not drawn) [Example 19, 4-Fluoro-N-(5-{1-[2-hydroxy-3-(3-oxo-piperazin-1-yl)-propyl]-5-methanesulfonyl-4,5,6,7-tetrahydro-1H-pyrazolo[4,3-c]pyridin-3-yl}-2-trifluoromethyl-benzyl)-benzamide] gave an IC50 [1] of 330 nM.
With `CC(=O)N1CCC(C(=O)NCc2cc(-c3nn(CC(O)CN4CCCC4)c4c3CN(S(C)(=O)=O)CC4)ccc2C(F)(F)F)CC1` (stereo not drawn) [Example 242, 1-Acetyl-piperidine-4-carboxylic acid 5-[1-(2-hydroxy-3-pyrrolidin-1-yl-propyl)-5-methanesulfonyl-4,5,6,7-tetrahydro-1H-pyrazolo[4,3-c]pyridin-3-yl]-2-trifluoromethyl-benzylamide] the IC50 [1] was 1030 nM.
For `CC(C)N1CCN(CC(O)Cn2nc(-c3ccc(C(F)(F)F)c(CNC(=O)c4ccc(F)cc4)c3)c3c2CCN(S(C)(=O)=O)C3)CC1` (stereo not drawn) [Example 20, 4-Fluoro-N-(5-{1-[2-hydroxy-3-(4-isopropyl-piperazin-1-yl)-propyl]-5-methanesulfonyl-4,5,6,7-tetrahydro-1H-pyrazolo[4,3-c]pyridin-3-yl}-2-trifluoromethyl-benzyl)-benzamide], the IC50 [1] was 400 nM.
`CC(=O)N(C)C1CCN(CC(O)Cn2nc(-c3ccc(C(F)(F)F)c(CNC(=O)CC(C)C)c3)c3c2CCN(S(C)(=O)=O)C3)C1` (stereo not drawn) [Example 279, N-[5-(1-{3-[3-(Acetyl-methyl-amino)-pyrrolidin-1-yl]-2-hydroxy-propyl}-5-methanesulfonyl-4,5,6,7-tetrahydro-1H-pyrazolo[4,3-c]pyridin-3-yl)-2-trifluoromethyl-benzyl]-3-methyl-butyramide] showed an IC50 [1] of 240 nM.
In the case of `CS(=O)(=O)N1CCc2c(c(-c3ccc(Cl)c(CNC(=O)c4ccccc4)c3)nn2CC(O)CN2CCCCC2)C1` (stereo not drawn) [Example 231, N-{2-Chloro-5-[1-(2-hydroxy-3-piperidin-1-yl-propyl)-5-methanesulfonyl-4,5,6,7-tetrahydro-1H-pyrazolo[4,3-c]pyridin-3-yl]-benzyl}-benzamide], the IC50 [1] is reported as 800 nM.
Molecule `CS(=O)(=O)N1CCc2c(c(-c3ccc(Cl)c(CNC(=O)c4ccc(F)cc4)c3)nn2CC(O)CN2CCC(N)CC2)C1` (stereo not drawn) [Example 83, N-(5-{1-[3-(4-Amino-piperidin-1-yl)-2-hydroxy-propyl]-5-methanesulfonyl-4,5,6,7-tetrahydro-1H-pyrazolo[4,3-c]pyridin-3-yl}-2-chloro-benzyl)-4-fluoro-benzamide] has an IC50 [1] of 270 nM.

— US20090118274A1, “MONOCYCLIC AMINOPROPYL TETRAHYDRO-PYRAZOLO-PYRIDINE MODULATORS OF CATHEPSIN S” (priority 2007, published 2009)
